In the kinase profiling compilation of Christmann-Franck et al. (2016):

Tests used:
FGFR2 (human) = FGFR2 (human) (UniProt P21802); assay: Caliper, Mobility shift assay off-chip
BRAF (human) = BRAF (human) (UniProt P15056); assay: ELISA
RAF1 (human) = RAF1 (human) (UniProt P04049); assay: ELISA
PRKAA2 (human) = PRKAA2 (human) (UniProt P54646); assay: Caliper, Mobility shift assay off-chip
ABL2 (human) = ABL2 (human) (UniProt P42684); assay: Caliper, Mobility shift assay off-chip
PDGFRA (human) = PDGFRA (human) (UniProt P16234); assay: Caliper, Mobility shift assay off-chip
MAP2K6 (human) = MAP2K6 (human) (UniProt P52564); assay: ELISA
MAP2K3 (human) = MAP2K3 (human) (UniProt P46734); assay: ELISA
DDR2 (human) = DDR2 (human) (UniProt Q16832); assay: Caliper, Mobility shift assay off-chip
EPHA6 (human) = EPHA6 (human) (UniProt Q9UF33); assay: Caliper, Mobility shift assay off-chip
MUSK (human) = MUSK (human) (UniProt O15146); assay: Caliper, Mobility shift assay off-chip
PRKAA1 (human) = PRKAA1 (human) (UniProt Q13131); assay: Caliper, Mobility shift assay off-chip
HIPK4 (human) = HIPK4 (human) (UniProt Q8NE63); assay: Caliper, Mobility shift assay off-chip
DDR1 (human) = DDR1 (human) (UniProt Q08345); assay: Caliper, Mobility shift assay off-chip
PDGFRB (human) = PDGFRB (human) (UniProt P09619); assay: Caliper, Mobility shift assay off-chip
MAPK14 (human) = MAPK14 (human) (UniProt Q16539); assay: Caliper, Mobility shift assay off-chip
CSF1R (human) = CSF1R (human) (UniProt P07333); assay: Caliper, Mobility shift assay off-chip
AURKA (human) = AURKA (human) (UniProt O14965); assay: Caliper, Mobility shift assay off-chip

ABL2 (human), sequence (P42684 whole entry, looked up): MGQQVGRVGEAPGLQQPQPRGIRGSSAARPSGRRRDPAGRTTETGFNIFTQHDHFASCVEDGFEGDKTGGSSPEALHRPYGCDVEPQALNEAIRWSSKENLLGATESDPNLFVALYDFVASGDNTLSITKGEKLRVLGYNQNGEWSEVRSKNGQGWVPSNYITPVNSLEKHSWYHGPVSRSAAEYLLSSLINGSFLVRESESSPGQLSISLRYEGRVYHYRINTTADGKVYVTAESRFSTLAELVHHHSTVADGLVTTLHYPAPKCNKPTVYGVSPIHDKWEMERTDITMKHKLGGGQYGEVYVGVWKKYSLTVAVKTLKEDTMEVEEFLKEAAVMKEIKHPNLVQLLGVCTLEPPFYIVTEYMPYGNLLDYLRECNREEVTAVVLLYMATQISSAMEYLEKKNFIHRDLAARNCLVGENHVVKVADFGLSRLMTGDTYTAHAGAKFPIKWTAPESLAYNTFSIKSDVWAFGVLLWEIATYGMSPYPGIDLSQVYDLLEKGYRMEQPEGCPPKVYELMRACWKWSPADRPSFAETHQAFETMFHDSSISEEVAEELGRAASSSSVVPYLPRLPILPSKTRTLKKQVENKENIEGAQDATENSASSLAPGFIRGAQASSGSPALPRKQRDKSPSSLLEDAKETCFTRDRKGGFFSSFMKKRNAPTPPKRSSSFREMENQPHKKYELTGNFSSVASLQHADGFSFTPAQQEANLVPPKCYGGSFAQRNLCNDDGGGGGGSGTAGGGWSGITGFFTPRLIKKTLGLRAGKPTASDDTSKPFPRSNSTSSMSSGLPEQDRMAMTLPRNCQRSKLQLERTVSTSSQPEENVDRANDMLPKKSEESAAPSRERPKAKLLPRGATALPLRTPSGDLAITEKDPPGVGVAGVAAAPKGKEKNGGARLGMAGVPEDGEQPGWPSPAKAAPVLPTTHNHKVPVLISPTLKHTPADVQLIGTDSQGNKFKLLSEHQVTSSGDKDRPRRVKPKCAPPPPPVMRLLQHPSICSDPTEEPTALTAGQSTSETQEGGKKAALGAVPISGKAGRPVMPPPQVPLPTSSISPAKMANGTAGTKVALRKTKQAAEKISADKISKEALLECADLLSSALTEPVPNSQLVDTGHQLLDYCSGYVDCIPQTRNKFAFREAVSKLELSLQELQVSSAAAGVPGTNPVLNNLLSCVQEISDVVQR
PRKAA2 (human), sequence (P54646 whole entry, looked up): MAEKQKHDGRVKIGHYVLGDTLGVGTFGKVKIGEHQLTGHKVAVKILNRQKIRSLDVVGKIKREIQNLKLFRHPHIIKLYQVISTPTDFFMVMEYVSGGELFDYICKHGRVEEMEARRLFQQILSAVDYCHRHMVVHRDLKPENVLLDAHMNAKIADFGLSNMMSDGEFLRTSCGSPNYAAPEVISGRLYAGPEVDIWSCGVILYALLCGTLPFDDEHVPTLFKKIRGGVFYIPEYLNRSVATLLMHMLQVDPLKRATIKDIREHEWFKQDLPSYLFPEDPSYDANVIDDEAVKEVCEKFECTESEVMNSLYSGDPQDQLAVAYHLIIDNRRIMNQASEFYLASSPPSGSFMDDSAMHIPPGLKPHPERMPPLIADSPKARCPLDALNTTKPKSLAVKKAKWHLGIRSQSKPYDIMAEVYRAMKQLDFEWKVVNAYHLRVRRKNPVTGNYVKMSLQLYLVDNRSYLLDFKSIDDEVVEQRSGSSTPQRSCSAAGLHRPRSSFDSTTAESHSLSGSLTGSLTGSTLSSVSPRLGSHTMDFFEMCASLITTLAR
MUSK (human), sequence (O15146 whole entry, looked up): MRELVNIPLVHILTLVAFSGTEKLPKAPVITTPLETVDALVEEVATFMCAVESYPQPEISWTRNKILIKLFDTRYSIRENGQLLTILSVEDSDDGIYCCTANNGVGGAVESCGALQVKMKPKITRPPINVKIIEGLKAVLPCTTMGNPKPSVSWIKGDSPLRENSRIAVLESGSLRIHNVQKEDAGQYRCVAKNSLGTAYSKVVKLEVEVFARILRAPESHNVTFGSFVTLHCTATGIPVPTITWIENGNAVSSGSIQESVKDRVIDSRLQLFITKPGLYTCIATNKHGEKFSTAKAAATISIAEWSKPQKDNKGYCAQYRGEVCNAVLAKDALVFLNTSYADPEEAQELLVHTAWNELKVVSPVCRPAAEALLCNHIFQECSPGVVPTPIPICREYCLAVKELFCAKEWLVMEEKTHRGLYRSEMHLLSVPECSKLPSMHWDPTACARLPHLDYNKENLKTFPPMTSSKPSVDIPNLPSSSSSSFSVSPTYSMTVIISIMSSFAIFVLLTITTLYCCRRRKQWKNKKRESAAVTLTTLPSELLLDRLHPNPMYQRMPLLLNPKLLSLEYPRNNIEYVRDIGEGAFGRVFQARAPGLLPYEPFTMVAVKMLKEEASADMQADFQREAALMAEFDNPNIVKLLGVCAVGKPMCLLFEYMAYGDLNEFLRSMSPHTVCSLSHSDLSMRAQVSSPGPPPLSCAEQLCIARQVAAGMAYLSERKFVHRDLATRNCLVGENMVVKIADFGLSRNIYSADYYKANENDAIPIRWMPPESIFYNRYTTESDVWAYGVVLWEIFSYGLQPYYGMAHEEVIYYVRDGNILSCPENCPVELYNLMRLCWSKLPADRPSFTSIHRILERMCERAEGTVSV
RAF1 (human), sequence (P04049 whole entry, looked up): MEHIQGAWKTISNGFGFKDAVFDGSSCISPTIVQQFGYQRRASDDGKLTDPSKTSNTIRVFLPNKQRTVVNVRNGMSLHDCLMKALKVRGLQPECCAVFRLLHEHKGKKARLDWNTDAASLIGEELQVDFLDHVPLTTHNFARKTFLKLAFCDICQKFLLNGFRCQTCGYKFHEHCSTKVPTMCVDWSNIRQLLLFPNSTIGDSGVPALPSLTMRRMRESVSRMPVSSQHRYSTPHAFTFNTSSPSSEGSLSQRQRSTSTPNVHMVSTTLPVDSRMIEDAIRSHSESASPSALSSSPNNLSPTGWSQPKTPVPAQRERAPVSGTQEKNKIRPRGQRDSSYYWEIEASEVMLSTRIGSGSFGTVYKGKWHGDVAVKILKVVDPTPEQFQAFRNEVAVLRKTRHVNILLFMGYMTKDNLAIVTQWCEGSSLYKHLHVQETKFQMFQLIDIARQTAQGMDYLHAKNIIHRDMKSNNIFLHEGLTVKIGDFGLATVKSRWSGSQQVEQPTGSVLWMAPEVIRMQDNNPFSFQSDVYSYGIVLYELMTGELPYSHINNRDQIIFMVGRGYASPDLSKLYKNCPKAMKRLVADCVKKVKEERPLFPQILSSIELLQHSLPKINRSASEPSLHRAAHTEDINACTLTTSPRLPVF
MAPK14 (human), sequence (Q16539 whole entry, looked up): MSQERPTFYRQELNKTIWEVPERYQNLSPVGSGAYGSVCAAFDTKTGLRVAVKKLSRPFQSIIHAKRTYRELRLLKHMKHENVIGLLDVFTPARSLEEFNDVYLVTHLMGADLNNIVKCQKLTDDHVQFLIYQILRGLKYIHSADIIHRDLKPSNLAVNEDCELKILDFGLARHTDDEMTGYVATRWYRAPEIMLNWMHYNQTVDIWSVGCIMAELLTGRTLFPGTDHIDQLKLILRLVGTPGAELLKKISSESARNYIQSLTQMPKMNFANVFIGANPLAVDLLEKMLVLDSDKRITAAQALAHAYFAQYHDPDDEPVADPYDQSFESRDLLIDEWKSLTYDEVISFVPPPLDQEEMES
PRKAA1 (human), sequence (Q13131 whole entry, looked up): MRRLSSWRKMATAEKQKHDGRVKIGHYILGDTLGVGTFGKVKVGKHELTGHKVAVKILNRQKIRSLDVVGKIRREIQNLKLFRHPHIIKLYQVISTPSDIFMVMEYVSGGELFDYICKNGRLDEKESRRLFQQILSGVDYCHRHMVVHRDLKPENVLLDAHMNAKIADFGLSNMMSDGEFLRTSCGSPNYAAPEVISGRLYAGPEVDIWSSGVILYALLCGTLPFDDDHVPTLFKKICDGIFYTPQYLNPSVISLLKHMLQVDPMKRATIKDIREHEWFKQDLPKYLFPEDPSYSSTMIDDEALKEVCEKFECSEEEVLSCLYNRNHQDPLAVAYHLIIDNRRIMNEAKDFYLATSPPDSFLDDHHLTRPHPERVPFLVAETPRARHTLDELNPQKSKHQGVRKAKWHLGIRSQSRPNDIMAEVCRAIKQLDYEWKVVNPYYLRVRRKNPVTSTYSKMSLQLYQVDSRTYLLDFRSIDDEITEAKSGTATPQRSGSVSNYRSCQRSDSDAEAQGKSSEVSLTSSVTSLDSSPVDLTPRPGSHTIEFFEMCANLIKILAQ
FGFR2 (human), sequence (P21802 whole entry, looked up): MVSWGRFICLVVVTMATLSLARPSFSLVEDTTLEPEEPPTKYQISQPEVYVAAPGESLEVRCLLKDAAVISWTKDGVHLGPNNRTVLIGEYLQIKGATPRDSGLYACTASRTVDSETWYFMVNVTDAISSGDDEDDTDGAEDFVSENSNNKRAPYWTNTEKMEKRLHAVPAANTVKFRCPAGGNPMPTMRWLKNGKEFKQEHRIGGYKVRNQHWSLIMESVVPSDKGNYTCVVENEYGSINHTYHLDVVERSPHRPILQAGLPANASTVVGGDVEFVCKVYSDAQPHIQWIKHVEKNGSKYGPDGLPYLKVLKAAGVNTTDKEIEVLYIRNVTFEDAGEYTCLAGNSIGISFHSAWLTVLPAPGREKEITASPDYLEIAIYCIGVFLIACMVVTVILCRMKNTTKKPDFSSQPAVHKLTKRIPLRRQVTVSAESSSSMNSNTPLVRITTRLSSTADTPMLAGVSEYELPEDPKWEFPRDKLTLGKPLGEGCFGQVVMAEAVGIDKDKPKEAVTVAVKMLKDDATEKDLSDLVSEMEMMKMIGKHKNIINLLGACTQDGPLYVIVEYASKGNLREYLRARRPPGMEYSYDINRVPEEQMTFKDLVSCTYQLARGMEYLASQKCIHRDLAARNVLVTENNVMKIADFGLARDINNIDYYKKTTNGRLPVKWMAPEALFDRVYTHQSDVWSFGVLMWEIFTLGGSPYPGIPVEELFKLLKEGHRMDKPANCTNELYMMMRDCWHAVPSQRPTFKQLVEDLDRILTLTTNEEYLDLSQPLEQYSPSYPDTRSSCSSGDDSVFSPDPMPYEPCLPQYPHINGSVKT

Ki (FGFR2 (human))	Ki (BRAF (human))	Ki (RAF1 (human))	Ki (PRKAA2 (human))	Ki (ABL2 (human))	Ki (PDGFRA (human))	Ki (MAP2K6 (human))	Ki (MAP2K3 (human))	Ki (DDR2 (human))	Ki (EPHA6 (human))	Ki (MUSK (human))	Ki (PRKAA1 (human))	Ki (HIPK4 (human))	Ki (DDR1 (human))	Ki (PDGFRB (human))	Ki (MAPK14 (human))	Ki (CSF1R (human))	Ki (AURKA (human))	Structure (SMILES)
18.1 nM																		Cc1cc2c(F)c(Oc3ncnn4cc(OC[C@@H](C)O)c(C)c34)ccc2[nH]1
	5000 nM	5000 nM	1670 nM	5000 nM	2.76 nM													Cc1ccc(F)c(NC(=O)Nc2ccc(-c3cccc4[nH]nc(N)c34)cc2)c1
			1500 nM	52.5 nM		302 nM	272 nM	1.95 nM	3.14 nM	291 nM	1500 nM	42.9 nM	52 nM	1.4 nM	266 nM	45.8 nM	86.5 nM	COc1cc2nccc(Oc3ccc(NC(=O)Nc4cc(C)on4)c(Cl)c3)c2cc1OC
